Reference: patent US20240139347A1, “COMPLEX, VASCULAR CONTRAST AGENT, X-RAY CONTRAST AGENT, METHOD FOR PRODUCING COMPLEX, AND IMAGING METHOD FOR CAPTURING STRUCTURAL CHANGE IN VESSEL” (TOHOKU UNIVERSITY, priority 2021, published 2024)

Experiment: in vivo
Details: BALB/c, mouse, iv
Description: The complex disclosed in the present application is preferably retained in the blood until completion of X-ray CT imaging after administration and is preferably excreted by the kidneys by the time of the next X-ray CT imaging. […] As a matter of course, the half-life in blood may be shorter or longer than the above half-life in blood in the case of imaging a temporary structure instead of imaging structural change over time or using a typical X-ray CT imaging device. The half-life in blood can be adjusted by changing the type of protein or the size of the complex. The “half-life in blood” means the time it takes for the X-ray CT value of the complex to decrease by half from the maximum value after administration in vivo. However, the shortest time at which X-ray CT imaging can be started after administration of a contrast agent is about 5 minutes, and thus the measurement value at the time when X-ray CT imaging is started 5 minutes after administration of the contrast agent is defined as the “maximum value after administration in vivo” in the present specification.
Imaging was performed using a micro X-ray CT device (SkyScan1176, Bruker) under conditions of a tube voltage of 50 kV, a tube current of 500 μA, and 35 μm/voxel, 18 μm/voxel, or 9 μm/voxel. The contrast agents synthesized in Example 1 and Comparative Examples 1 and 2 were imaged in vitro. In vivo, 200 μL of each contrast agent was injected into an anesthetized mouse from the tail vein, and CT imaging was performed once or twice. Slice images were acquired using CTAn (Bruker), and volume rendered images were acquired using CTVOX. CT values were calculated by defining the value of Hounsfield Units (HU) as −1000 for air and 0 for water.
The image before the administration of the contrast agent was taken as 0 min (before injection).
FIGS. 16 and 17 show CT images of mouse hearts before and after intravenous administrations of the contrast agents. […] In addition, in FIGS. 16 and 17, the dotted line circles indicate the contour of the hearts, and the tips of the arrows (white and black) indicate the positions of the septa of the hearts.
FIG. 18 is a graph showing results of measuring changes in CT values of ventricles over time.

C[C@H](O)C(=O)Nc1c(I)c(C(=O)NC(CO)CO)c(I)c(C(=O)NC(CO)CO)c1I [iopamidol, Iopamidol]
CT value of ventricles: 72 HU
half-life: < 1 h
CT value of ventricles (5 min): 291 HU
CT value of ventricles (60 min): 130 HU
CT value of ventricles (180 min): 75 HU
CT value of ventricles (360 min): 87 HU
CT value of ventricles (24 h): 72 HU
